± gives the standard deviation of the averaged measurements.
Tests used:
Settings in all cases: treatment time: 3 days
UT-SCC-8 = experiment: drug sensitivity score (DSS); higher = more sensitive; extreme values may be limits of the assay
How it was run: (§1)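 Viability of HPV-negative HNSCC cell lines was measured by CellTiter-Glo 2.0 luminescence. Cells were seeded at 500 cells/well in 384-well plates on plastic, on Matrigel- or Myogel-coated wells (500 µg/mL), or embedded in Matrigel or Myogel plus rat collagen I, then given compounds at five 10-fold concentrations for 3 days, with signals normalised to vehicle (0.1% DMSO) and cell-killing control wells. Fitting of percent-inhibition dose–response curves in the FIMM pipeline yielded IC50, maximal inhibition and drug sensitivity score.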

UT-SCC-14 = experiment: as above
How it was run: as §1

UT-SCC-106A [1] = experiment: as above
How it was run: as §1

UT-SCC-24A [2] = experiment: drug sensitivity score (DSS); higher = more sensitive
Experimental: (§2)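 HNSCC cell lines (500 cells/well, 384-well) were cultured on plastic, on top of (2D) or embedded (3D) in Matrigel or human leiomyoma matrix Myogel (500 ug/mL; Myogel 3D mixed with rat collagen I). Cells were treated for 3 days with 5 ten-fold concentrations of each drug, and viability was read by CellTiter-Glo. Suffixes _1/_2/_3 on drug names are replicates.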

UT-SCC-73 = experiment: maximal % inhibition of viability relative to DMSO; higher = stronger effect
How it was run: as §1

UT-SCC-44 = experiment: as above
How it was run: as §1

UT-SCC-106A [3] = experiment: as above
How it was run: as §1

UT-SCC-24A [4] = experiment: maximal % inhibition of viability relative to DMSO; higher = stronger effect
Experimental: as §2, with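 “CellTiter-Glo. Viability was normalised to DMSO (0% inhibition) and 100 uM benzethonium chloride (100% inhibition) controls and fitted with the FIMM DSRT pipeline to give IC50 (nM), maximal % inhibition and the drug sensitivity score (DSS).” for “CellTiter-Glo.”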

[5] = culture condition: embedded in Myogel + collagen I
[6] = culture condition: on top of Matrigel
[7] = culture condition: on top of Myogel
[8] = culture condition: plastic 2D (no matrix)
[9] = culture condition: embedded in Matrigel

COc1cc(F)c(F)c(Nc2ccc(I)cc2F)c1NS(=O)(=O)C1(C[C@H](O)CO)CC1 [Refametinib]
drug sensitivity score (UT-SCC-8; [5]): 6.63 ± 3.1 DSS
drug sensitivity score (UT-SCC-8; [6]): 12.5 ± 1.5 DSS
drug sensitivity score (UT-SCC-8; [7]): 10.3 ± 2 DSS
drug sensitivity score (UT-SCC-8; [8]): 10.9 ± 2.8 DSS
drug sensitivity score (UT-SCC-14; [9]): 13.5 ± 4.8 DSS
drug sensitivity score (UT-SCC-14; [5]): 9.87 ± 1.7 DSS
drug sensitivity score (UT-SCC-14; [6]): 10.9 ± 3.1 DSS
drug sensitivity score (UT-SCC-14; [7]): 8.53 ± 0.47 DSS
drug sensitivity score (UT-SCC-14; [8]): 5.8 ± 2.8 DSS
drug sensitivity score (UT-SCC-106A [1]; [9]): 17.8 ± 1.8 DSS
drug sensitivity score (UT-SCC-106A [1]; [5]): 3.97 ± 0.67 DSS
drug sensitivity score (UT-SCC-106A [1]; [6]): 21.6 ± 1.2 DSS
drug sensitivity score (UT-SCC-106A [1]; [7]): 5.3 ± 0.82 DSS
drug sensitivity score (UT-SCC-106A [1]; [8]): 20.4 ± 0.42 DSS
drug sensitivity score (UT-SCC-24A [2]; [9]): 34.3 ± 1.1 DSS
drug sensitivity score (UT-SCC-24A [2]; [5]): 17.3 ± 2.2 DSS
drug sensitivity score (UT-SCC-24A [2]; [6]): 29.2 ± 1.3 DSS
drug sensitivity score (UT-SCC-24A [2]; [7]): 13 ± 1.6 DSS
drug sensitivity score (UT-SCC-24A [2]; [8]): 26.7 ± 0.62 DSS
maximal % inhibition of viability (UT-SCC-73; [9]): 85.7 ± 3.9%
maximal % inhibition of viability (UT-SCC-73; [5]): 73.4 ± 14%
maximal % inhibition of viability (UT-SCC-73; [6]): 81.8 ± 1.5%
maximal % inhibition of viability (UT-SCC-73; [7]): 72 ± 2.7%
maximal % inhibition of viability (UT-SCC-73; [8]): 75.8 ± 3.1%
maximal % inhibition of viability (UT-SCC-44; [9]): 90.4 ± 2.6%
maximal % inhibition of viability (UT-SCC-44; [5]): 55.1 ± 5%
maximal % inhibition of viability (UT-SCC-44; [6]): 73.2 ± 7%
maximal % inhibition of viability (UT-SCC-44; [7]): 56.9 ± 0.9%
maximal % inhibition of viability (UT-SCC-44; [8]): 62.2 ± 4.4%
maximal % inhibition of viability (UT-SCC-106A [3]; [9]): 53.7 ± 4.7%
maximal % inhibition of viability (UT-SCC-106A [3]; [5]): 36.7 ± 3.4%
maximal % inhibition of viability (UT-SCC-106A [3]; [6]): 66 ± 2.5%
maximal % inhibition of viability (UT-SCC-106A [3]; [7]): 43.4 ± 3.1%
maximal % inhibition of viability (UT-SCC-106A [3]; [8]): 67.33 ± 0.64%
maximal % inhibition of viability (UT-SCC-24A [4]; [9]): 84.4 ± 1.8%
maximal % inhibition of viability (UT-SCC-24A [4]; [5]): 73.9 ± 0.81%
maximal % inhibition of viability (UT-SCC-24A [4]; [6]): 80.4 ± 2.4%
maximal % inhibition of viability (UT-SCC-24A [4]; [7]): 59.7 ± 7.4%
maximal % inhibition of viability (UT-SCC-24A [4]; [8]): 75.4 ± 3.4%

From the supplement of paper PMC7017272
